Consider one compound from patent publication US20060025419A1, “Imidazoquinoxaline compound for the treatment of melanoma” (priority 2004, published 2006).

The test system of experiment [1] is 15 other kinases including JNK, or mitogen-activated protein kinase-activated protein kinase 2. The conditions noted are these: cited from earlier work.
A further experiment has as its system Hs 294T tumors. As to the kind of experiment: Melanoma tumor growth in nude mice. It counts as in vivo. As to conditions: 75 mg/kg orally once daily, 21 days, vs vehicle.
A further experiment has as its system A375 tumors. The experiment is described as follows: Melanoma tumor growth in nude mice. It counts as in vivo. The conditions noted are these: 75 mg/kg orally once daily, 21 days, vs vehicle.
The test system of a further experiment is CXCL1. As to the kind of experiment: CXCL1 ELISA of serum of mice bearing melanoma tumors. It counts as in vivo. The protocol: (§1) FIGS. 2A-2D. […] SK-Mel-5 cells were plated in 6-well plates (1.5×10^5 cells per well) and then cotransfected with 1 μg of HIV long terminal repeat NF-κB-luciferase vector and β-galactosidase vector DNA using Lipofectamine Plus reagent. Twenty-four hours after transfection, cells in duplicate plates were treated with 0, 0.1, 1 and 10 μM of BMS-345541in DMSO and incubated for an additional 36 h. Cell extract was prepared and luciferase activity was detected. Luciferase activity was normalized to β-galactosidase activity. […] ATP. The [γ-^32P]-labeled IκBα protein was visualized by autoradiography. […] The supernatants from B were cleared by centrifugation, or (FIG. 2D) sera were collected from mice, and subjected to ELISA assay for CXCL1 according to the manufacture's protocol. Data shown are from a representative data set from two experiments performed in duplicate (total n=4 for each point). For ELISA; the mean value is representative of serum samples from five mice.
To quantify the CXCL1 expression levels in vivo and in vitro, serum was collected at the end of the experiments from mice bearing SK-Mel-5 melanoma tumors or from the cleared supernatants of melanoma cell culture medium. Briefly, 1.5×10^5 of SK-Mel-5 cells/well were seeded in six-well plates in duplicate in DMEM/F12 medium containing 10% FBS.
A general note: ELISA stands for enzyme-linked immunosorbent assay.

Another experiment concerns SK-Mel-5 cells. The experiment is described as follows: Electron microscopy of cultured melanoma cells. It counts as cell-based, human. As to conditions: 10 μM, 24 h.
A further experiment has as its system Hs 294T cells. As to the kind of experiment: Growth of cultured melanoma cells, hemocytometer counting. It counts as cell-based, human. An excerpt: (§2) A super-repressor form of human IκBα (S32, 36A) resistant to degradation and mutant IKKβ […]) was kindly provided by Javier […] Cancer Center, University of California-San Diego School of Medicine). Antibodies to IKKα (H-744), IKKβ (H-470), Bcl-2, Bax and AIF were purchased from Santa Cruz Biotechnology, Inc. (Santa Cruz, Calif.). […] N-acetyl-L-cysteine (NAC) and Tiron were from Sigma-Aldrich (St. Louis, Mo.). Normal human epidermal melanocytes (NHEM) were provided by the Skin Disease Research Center in Vanderbilt University School of Medicine. NHEM were cultured in 154 medium with 1× human melanocyte growth supplement (Cascade Biologicals, Inc.). The melanoma cell lines, Sk Mel5, A375 and Hs294T, originally established from human metastatic melanoma, were purchased from American Type Culture Collection and cultured in DMEM: Ham's F-12 medium containing 10% FBS, 2 mM of L-glutamine, 100 μM of MEM Non-Essential Amino Acids (Life Technologies, Inc.), and 1 mM of sodium pyruvate (Sigma Chemical Co.). Aberrant activation of NF-κB has been associated with carcinogenesis, and constitutively high IKK activity has been detected in many tumor types, including human melanoma (Yang & Richmond, 2001; […] et al., 2003; […] et al., 2003). IKK is a major regulator of the NF-κB pathway and therefore represents an attractive therapeutic target in advanced cancers. […] After three days of culture, the cell numbers were determined by hemocytometer counting (Table 1).

The test system of a further experiment is A375 cells. Described as above. It counts as cell-based, human.
Text: as §2

Experiment [2] has as its system mitochondria isolated from SK-Mel-5. The experiment is described as follows: Cytochrome-c release from isolated mitochondria. The arrangement: species or system human. As to conditions: 10 μM, 4° C., 30 min. The procedure: FIGS. 5A-5E. […] (FIG. 5A) Redistribution of Bcl-2 and Bax in mitochondria. […] Subcellular mitochondria and cytoplasm were prepared and subjected to Western blot analysis for Bcl-2 and Bax. (FIG. 5B) Dissipation of mitochondrial Δψm. […] After exposure, mitochondria were isolated and incubated with 80 μM 3,3′dihexyloxacarbocyanine iodide (DiOC6) at 37° C. for 15 min. Δψm was determined by FACS analysis using 484/530 nm filters within 10 min while gating the forward and sideward scatters on intact mitochondria (FIG. 5C). (FIG. 5D) Release of cytochrome-C and AIF. […] Subcellular extracts were prepared and subjected to Western blot analysis for cytochrome-C and AIF. […] The supernatant was assessed for cytochrome-c release. […]
The Mitochondria Isolation Kit (Pierce, Rockford, Ill.) was used for isolation of mitochondria from cultured melanoma cells according to the manufacture's instruction for the Reagent-based method. […] The purity of mitochondria was determined by Western blotting with β-actin, where β-actin negative preparation were fully to be pure. […]
Mitochondria play a crucial role in the regulation of programmed cell death (Zamzami et al., 1995a; 1995b; 1996a; 1996b). […] To investigate alteration of the apoptotic proteins in mitochondria during BMS-345541-induced apoptosis, the ratio of Bcl-2 and Bax distributed in mitochondria was analyzed in SK-Mel-5 cells using Western blot. […]

A further experiment has as its system NF-κB. As to the kind of experiment: NF-κB-dependent luciferase reporter assay. It counts as cell-based, human. As to conditions: 36 h. The procedure: as §1
(In general: Reporter assays use an easily measured gene product as a stand-in for the process of interest.)

`Cc1ccc2nc(NCCN)c3ncc(C)n3c2c1.Cl` [BMS-345541, 4(2′-aminoethyl)amino-1,8-dimethylimidazo(1,2-a)quinoxaline]: the “effect on 15 other kinases” value in experiment [1] was “failing to affect”. In addition, the figures for the “inhibition of tumor growth” value in the experiment with Hs 294T tumors and with A375 tumors were 67±3.4% and 69±11%, respectively. For the same compound, the “CXCL1 expression in mouse sera” value in the experiment on CXCL1 was “suppressed in a concentration-dependent manner”. In addition, in the experiment on SK-Mel-5 cells, the “morphology under electron microscopy” value was “typical feature of apoptosis”. Further, the “cell number after three days of culture” value is given as 1.9 ± 0.15 10^5 in the experiment on Hs 294T cells (0.1 μM); 2.2 ± 0.42 10^5 with Hs 294T cells (1.0 μM); 0.013 ± 0.01 10^5 in the experiment with Hs 294T cells (10 μM); 0 10^5 with Hs 294T cells (100 μM); 3.2 ± 0.38 10^5 in the experiment with A375 cells (A375, 0.1 μM); 1.6 ± 0.38 10^5 in the experiment with A375 cells (A375, 1.0 μM). Besides, the “cell number after three days of culture” value was 0.020 ± 0.01 10^5 with A375 cells (A375, 10 μM) and 0 10^5 in the experiment with A375 cells (A375, 100 μM). Also, in experiment [2], the “direct action on isolated mitochondria (cytochrome-c release into supernatant)” value was “no direct action”. In addition, the “reduction in NF-κB-dependent luciferase activity” value stood at 36% in the experiment with NF-κB (SK-Mel-5, 0.1 μM); 75% in the experiment on NF-κB (SK-Mel-5, 1.0 μM); 95% with NF-κB (SK-Mel-5, 10 μM).
